In assay [1] the test system is MOLM-14 (acute myeloid leukemia) cell line. Briefly: CellTiter-Glo luminescent cell viability assay, MOLM-14. The following applies: Homo sapiens; for viability at 4 µM: MOLM-14, compound at 4 μM; for viability at 4 µM / viability at 10 µM: 72 h; for viability at 10 µM: MOLM-14, compound at 10 μM; for EC50: MOLM-14 cell line, 72 h incubation, CellTiter-Glo, read-out: EC50, growth inhibition of MOLM-14. The assay is classed as cell-based, human. Summed up:
(§1)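 In a 72 h viability assay, compound-treated cells were compared against matched H2O or DMSO diluent controls by luminescence, points in at least duplicate.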
In general terms: Cellular ATP, detected with luciferase, serves as a proxy for viable cell number.

For assay [2], the system named is Huh7 (hepatocellular carcinoma) cell line. Put plainly: CellTiter-Glo luminescent cell viability assay, Huh7. The format is cell-based, human. As to conditions: Homo sapiens, Huh-7; for viability at 4 µM: Huh7, compound at 4 μM; for viability at 4 µM / viability at 10 µM: 72 h; for viability at 10 µM: Huh7, compound at 10 μM; for EC50: Huh7 cell line, 72 h incubation, CellTiter-Glo, read-out: EC50, growth inhibition of Huh7. Summed up:
as §1

Assay [3] concerns PANC-1 (prancreatic carcinoma) cell line. Briefly: CellTiter-Glo luminescent cell viability assay, PANC-1. The following applies: Homo sapiens; for viability at 4 µM: PANC-1, 4 μM; for viability at 4 µM / viability at 10 µM: 72 h, % of signal of diluent-treated cultures; for viability at 10 µM: PANC-1, 10 μM; for EC50: PANC-1 cell line, 72 h incubation, CellTiter-Glo, read-out: EC50 (growth inhibition assay of PANC-1 cell line). The format is cell-based. Summed up: as §1

Assay [4] relates to HCT-116 (colorectal carcinoma) cell line. Briefly: CellTiter-Glo luminescent cell viability assay, HCT-116. The assay is classed as cell-based, human. The following applies: Homo sapiens; for viability at 4 µM: HCT-116, compound at 4 μM; for viability at 4 µM / viability at 10 µM: 72 h; for viability at 10 µM: HCT-116, compound at 10 μM; for EC50: HCT-116 cell line, 72 h incubation, CellTiter-Glo, read-out: EC50, growth inhibition of HCT-116. Put shortly:
(§2)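 Cells were cultured at 37 °C, 5% CO2 with 10% FBS; adherent lines were plated overnight, suspension MOLM-14 plated 1 h before dosing. Compounds in H2O or DMSO were added at various concentrations for 72 h, and viability was read by luminescence. EC50 is the dose reducing signal to 50% of diluent control.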

Assay [5] relates to A375 (malignant melanoma) cell line. Briefly: CellTiter-Glo luminescent cell viability assay, A375. The format is cell-based, human. As to conditions: Homo sapiens, A-375; for viability at 4 µM: A375, compound at 4 μM; for viability at 4 µM / viability at 10 µM: 72 h; for viability at 10 µM: A375, compound at 10 μM; for EC50: A375 cell line, 72 h incubation, CellTiter-Glo, read-out: EC50, growth inhibition of A375. Put shortly:
as §2

Assay [6] has as its system HepG2 (hepatocellular carcinoma) cell line. Put plainly: CellTiter-Glo luminescent cell viability assay, HepG2. The format is cell-based, human. As to conditions: Homo sapiens; for viability at 4 µM / viability at 10 µM: HepG2, HepG, 72 h; for viability at 4 µM: compound at 4 μM; for viability at 10 µM: compound at 10 μM; for EC50: HepG2 cell line, 72 h incubation, CellTiter-Glo, read-out: EC50, growth inhibition of HepG2. Put shortly: as §1

In assay [7] the test system is 786-O (renal adenocarcinoma) cell line. Put plainly: CellTiter-Glo luminescent cell viability assay, 786-O. The format is cell-based, human. The following applies: Homo sapiens, 786-0; for EC50: 786-O cell line, 72 h incubation, CellTiter-Glo, read-out: EC50, growth inhibition of 786-O; for viability at 4 µM / viability at 10 µM: 786-O, 72 h; for viability at 4 µM: compound at 4 μM; for viability at 10 µM: compound at 10 μM. Put shortly: as §2

A word on the viability: it is a read-out of living cells in per cent, often relative to untreated cells. In general, EC50 refers to the concentration that produces a half-maximal response. On to `COc1ccc(CNc2nc3ccccc3c(N3CCC(NC(C)(C)C)CC3)c2C#N)cc1` [Compound 3290CN, 2-(4-methoxybenzylamino)-3-cyano-4-[4-(tert-butylamino)piperidin-1-yl]quinoline], for which the viability at 4 µM in assay [1] was 76.4%; in assay [2], 80.2%; in assay [3], 95.7%; in assay [4], 43.8%; in assay [5] it was 57.6%; in assay [6] it was 75.5%. Moreover, the viability at 4 µM in assay [7] came out at 74.1%. In addition, the viability at 10 µM amounted to 7.4% in assay [1]; 1% in assay [2]; 38.3% in assay [3]; 0.7% in assay [4]; 0.8% in assay [5]; 0.7% in assay [6]. In assay [7], the viability at 10 µM worked out at 2.7%. For the same compound, the EC50 in assay [1] lay in the range of 5 to 10 µM; in assay [2] it was 0.5 to 5 µM; in assay [3], 5 to 10 µM; in assay [4], 0.5 to 5 µM; in assay [5], 0.5 to 5 µM; in assay [6] it was 0.5 to 5 µM. Also, the EC50 in assay [7] fell in the range of 5 to 10 µM.

Take `N#Cc1c(NCc2ccc(Cl)cc2)nc2ccccc2c1N1CCC(NC2CCCC2)CC1` [Compound 3178CN, 2-(4-chlorobenzylamino)-3-cyano-4-[4-(cyclopentylamino)piperidin-1-yl]quinoline]: the viability at 4 µM in assay [1] is 90.4%; in assay [2] it was 58.8%; in assay [3] it was 85.8%; in assay [4], 0.3%; in assay [5], 0.4%; in assay [6] it was 6%. Besides, the viability at 4 µM in assay [7] was 1.3%. In addition, the viability at 10 µM worked out at 0.7% in assay [1]; 0.6% in assay [2]; 0.8% in assay [3]; 0.4% in assay [4]; 0.5% in assay [5]; 0.5% in assay [6]. Also, the viability at 10 µM in assay [7] was determined as 0.5%. Moreover, the EC50 in assay [1] lay in the range of 0.5 to 5 µM; in assay [2] it was 0.5 to 5 µM; in assay [3] it was 5 to 10 µM; in assay [4], 0.5 to 5 µM; in assay [5] it was 0.5 to 5 µM; in assay [6], 0.5 to 5 µM. In assay [7], the EC50 was 0.5 to 5 µM.

`CCN(CC)C1CCN(c2c(C#N)c(NCc3ccc(Cl)cc3)nc3ccccc23)C1` (stereo not drawn) [Compound 126CN, 2-(4-chloro-benzylamino)-3-cyano-4-[3-(diethylamino)pyrrolidin-1-yl]quinoline]: the viability at 4 µM in assay [1] worked out at 105%; in assay [2], 98.9%; in assay [3], 106%; in assay [4] it was 97%; in assay [5], 92.5%; in assay [6], 104%. For the same compound, in assay [7], the viability at 4 µM stood at 91.2%. Further, the viability at 10 µM in assay [1] was determined as 99.6%; in assay [2], 96.1%; in assay [3], 103%; in assay [4] it was 93.3%; in assay [5], 89.9%; in assay [6] it was 102%. Moreover, the viability at 10 µM in assay [7] stood at 87.6%.

For `CC(C)(C)NC1CCN(c2c(C#N)c(NCc3ccco3)nc3ccccc23)CC1` [Compound 3302CN, 2-[(furan-2-ylmethyl)amino]-3-cyano-4-[4-(tert-butylamino)piperidin-1-yl]quinoline], the viability at 4 µM in assay [1] was 82.3%; in assay [2], 76.6%; in assay [3], 95.8%; in assay [4], 57.4%; in assay [5] it was 81.6%; in assay [6], 83.3%. Besides, the viability at 4 µM in assay [7] came out at 86.1%. Besides, the viability at 10 µM was 67% in assay [1]; 40.1% in assay [2]; 82.3% in assay [3]; 10.8% in assay [4]; 14.3% in assay [5]; 57.5% in assay [6]. In assay [7], the viability at 10 µM was 48.1%.

With `CN(C)C1CCN(c2c(C#N)c(NCc3ccc(Cl)cc3)nc3ccccc23)C1` (stereo not drawn) [Compound 3202CN, 2-(4-chloro-benzylamino)-3-cyano-4-[3-(dimethylamino)pyrrolidin-1-yl]quinoline], the viability at 4 µM in assay [1] worked out at 98.7%; in assay [2] it was 91.1%; in assay [3], 96.1%; in assay [4] it was 93.7%; in assay [5], 84.5%; in assay [6] it was 104%. Moreover, the viability at 4 µM in assay [7] is 92.9%. Besides, the viability at 10 µM in assay [1] worked out at 82.6%; in assay [2] it was 61.5%; in assay [3], 81.5%; in assay [4], 62.4%; in assay [5] it was 70.5%; in assay [6], 81%. Moreover, the viability at 10 µM in assay [7] amounted to 74.7%.

In the case of `CC(C)(C)NC1CCN(c2c(C#N)c(NCc3ccc(C(F)(F)F)cc3)nc3ccccc23)CC1` [Compound 3292CN, 2-[4-(trifluoromethyl)benzylamino]-3-cyano-4-[4-(tert-butylamino)piperidin-1-yl]quinoline], the viability at 4 µM in assay [1] worked out at 54.7%; in assay [2], 10.2%; in assay [3], 75.6%; in assay [4] it was 0.3%; in assay [5], 0.3%; in assay [6], 20.5%. Also, the viability at 4 µM in assay [7] amounted to 0.5%. In addition, the viability at 10 µM came out at 0.3% in assay [1]; 0.2% in assay [2]; 25% in assay [3]; 0.1% in assay [4]; 0.2% in assay [5]; 0.2% in assay [6]. Further, the viability at 10 µM in assay [7] was 0.2%. Besides, the EC50 is 5 to 10 µM in assay [1]; 0.5 to 5 µM in assay [2]; 5 to 10 µM in assay [3]; 0.5 to 5 µM in assay [4]; 0.5 to 5 µM in assay [5]; 0.5 to 5 µM in assay [6]. In assay [7], the EC50 fell in the range of 0.5 to 5 µM.

Turning to `CC(C)NC1CCN(c2c(C#N)c(NCc3ccc(Cl)cc3)nc3ccccc23)CC1` [Compound 3174CN, 2-(4-chlorobenzylamino)-3-cyano-4-[4-(iso-propylamino)piperidin-1-yl]quinoline], the viability at 4 µM in assay [1] turned out to be 24.4%; in assay [2], 62.9%; in assay [3], 84.8%; in assay [4], 0.3%; in assay [5], 0.3%; in assay [6], 0.5%. For the same compound, in assay [7], the viability at 4 µM worked out at 3.6%. Besides, the viability at 10 µM in assay [1] stood at 0.3%; in assay [2], 0.3%; in assay [3] it was 0.6%; in assay [4], 0.1%; in assay [5] it was 0.2%; in assay [6], 0.2%. Besides, in assay [7], the viability at 10 µM is 0.2%. Also, the EC50 lay within 0.5 to 5 µM in assay [1]; 0.5 to 5 µM in assay [2]; 5 to 10 µM in assay [3]; 0.5 to 5 µM in assay [4]; 0.5 to 5 µM in assay [5]; 0.5 to 5 µM in assay [6]. Further, in assay [7], the EC50 lay in the range of 0.5 to 5 µM.

As for `N#Cc1c(NCc2ccc(Cl)cc2)nc2ccccc2c1N1CCCC(N)C1` (stereo not drawn) [Compound 3156CN, 2-(4-chlorobenzylamino)-3-cyano-4-(3-aminopiperidin-1-yl)quinoline], the viability at 4 µM in assay [1] is 92.8%; in assay [2], 83%; in assay [3], 102%; in assay [4], 52%; in assay [5], 10%; in assay [6], 32.6%. The viability at 4 µM in assay [7] amounted to 77.8%. For the same compound, the viability at 10 µM in assay [1] was 0.6%; in assay [2], 0.6%; in assay [3] it was 0.9%; in assay [4], 0.5%; in assay [5], 0.4%; in assay [6], 0.5%. Besides, in assay [7], the viability at 10 µM amounted to 0.6%. Also, the EC50 fell in the range of 5 to 10 µM in assay [1]; 0.5 to 5 µM in assay [2]; 5 to 10 µM in assay [3]; 0.5 to 5 µM in assay [4]; 0.5 to 5 µM in assay [5]; 0.5 to 5 µM in assay [6]. Further, in assay [7], the EC50 was 0.5 to 5 µM.

Values taken from patent US10577362B2, “Substituted 2, 4-diamino-quinoline derivatives for use in the treatment of proliferative diseases” (GENOSCIENCE PHARMA, priority 2016, dated 2020).
